Experimental findings from article PMC8020795 (Proceedings of the National Academy of Sciences of the …, 2021) are described below.

One series deals with T1, dopamine D3 receptor (Homo sapiens, UniProt P35462).
T1 construct: purchased Eurofins Panlabs, Inc (Taipei, Taiwan, ROC)
As to the kind of experiment: Off-target standard assay (radioligand binding, Eurofins Panlabs). The note with it: read-out: Inhibition of dopamine D3 receptor (D3R). An excerpt:
(§1) Table: List of genes examined by real-time PCR and the primer sequences used.
(§2) Genes Forward primers Reverse primers […]
(§3) Vim 5’-[…]-3’ 5’-[…]-3’ […]
(§4) Zeb2 5’-[…]-3’ 5’-[…]-3’
(§5) Twist1 5’-[…]-3’ 5’-[…]-3’
(§6) Cdh1 5’-[…]-3’ 5’-[…]-3’
(§7) Mta3 5’-[…]-3’ 5’-[…]-3’ […]
(§8) Off-target standard assays
(§9) Methods employed in this study have been adapted from the scientific literature to […]
(§10) maximize reliability and reproducibility. Reference standards were run as an integral part of […]
(§11) each assay to ensure the validity of the results obtained. Radioligand binding Assays were […]
(§12) performed under conditions described in the accompanying "Methods" section of this report […]
(§13) by Eurofins Panlabs, Inc (Taipei, Taiwan, ROC).
(§14) BPRCX807 were tested in the hERG (hERG-CHO, automated patch-clamp) assay and determined at Eurofins Panlabs (Missouri, USA). The experiment was accepted in accordance with Eurofins validation Standard Operating Procedure.
(§15) Selectivity Screening of various chemokine receptors
(§16) The results were performed by Eurofins DiscoverX (Fremont, California, USA). The

For the next series, the target named is T2, bradykinin B1 receptor (Homo sapiens, UniProt P46663).
T2 construct: purchased Eurofins Panlabs, Inc (Taipei, Taiwan, ROC)
T2 sequence (P46663 1-353): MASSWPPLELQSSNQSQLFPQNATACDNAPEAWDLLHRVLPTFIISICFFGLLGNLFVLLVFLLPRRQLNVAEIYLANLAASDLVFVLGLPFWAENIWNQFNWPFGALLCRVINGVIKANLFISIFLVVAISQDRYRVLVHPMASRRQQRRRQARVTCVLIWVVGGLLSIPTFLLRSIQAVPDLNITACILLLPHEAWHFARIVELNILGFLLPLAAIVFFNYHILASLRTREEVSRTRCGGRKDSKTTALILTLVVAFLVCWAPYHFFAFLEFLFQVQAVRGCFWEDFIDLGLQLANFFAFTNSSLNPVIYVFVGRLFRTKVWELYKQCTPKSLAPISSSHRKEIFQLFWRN
Described as above. Conditions: read-out: Inhibition of bradykinin B1 receptor (B1R).
Description: as §1, §2, §3, §4, §5, §6, §7, §8, §9, §10, §11, §12, §13, §14, §15, §16

The next series concerns the target CXCR4 (Homo sapiens, UniProt P61073). Description: CXCL12-induced chemotaxis inhibition assay in CCRF-CEM cells. It is filed as cell-based. The note with it: mean ± SD. Set-up: host or cells: CCRF-CEM. Here is the method:
Figure S1. Binding affinity and chemotaxis inhibition assay of BPRCX807. (a) Binding affinity (IC50) of BPRCX807 was determined by 50% inhibition of radioligand [125I]CXCL12 binding to hCXCR4-transfected HEK293T membrane; (b) CXCL12-induced chemotaxis inhibition assay was performed to measure the inhibitory activity of BPRCX807 using CCRF-CEM cell line. Values represent the mean ± SD of at least three independent […]
Figure S2. CXCR4+CD34+ stem cell mobilization. C57BL/6 male mice were […]
h after dosing, the peripheral blood was harvested for analyzing the number of CXCR4+CD34+ stem cells. The data are the mean values ± SEM (n = 3/group). Statistical

Another series has as its target T3, hERG (Homo sapiens, UniProt Q12809).
T3 construct: host or cells: CHO (hERG-CHO)
Description: hERG patch-clamp assay (hERG-CHO, automated patch-clamp). It is filed as cell-based. Conditions: human, CHO cells that express hERG. From the text:
(§17) page 16: Table: List of genes examined by real-time PCR and the primer sequences used. Genes Forward primers Reverse primers Slug [NT] Fn1 [NT] Cdh2 […] Foxc2 [NT] Zeb1 [NT] Zeb2 [NT] Twist1 [NT] Cdh1 [NT] Mta3 [NT] Cldn3 [NT] Cldn5 [NT] β-actin […] [NT] Off-target standard assays Methods employed in this study have been adapted from the scientific literature to maximize reliability and reproducibility. Reference standards were run as an integral part of each assay to ensure the validity of the results obtained. Radioligand binding Assays were performed under conditions described in the accompanying "Methods" section of this report by Eurofins Panlabs, Inc (Taipei, Taiwan, ROC). hERG patch-clamp assay BPRCX807 were tested in the hERG (hERG-CHO, automated patch-clamp) assay and determined at Eurofins Panlabs (Missouri, USA). The experiment was accepted in accordance with Eurofins validation Standard Operating Procedure. Selectivity Screening of various chemokine receptors The results were performed by Eurofins DiscoverX (Fremont, California, USA). The S15
For orientation: The hERG channel carries a current that helps repolarise heart muscle cells.

The target in the next series is T4, hERG (human K+ channel) (Homo sapiens, UniProt Q12809).
T4 construct: host or cells: CHO (hERG-CHO)
T4 sequence (Q12809 whole entry): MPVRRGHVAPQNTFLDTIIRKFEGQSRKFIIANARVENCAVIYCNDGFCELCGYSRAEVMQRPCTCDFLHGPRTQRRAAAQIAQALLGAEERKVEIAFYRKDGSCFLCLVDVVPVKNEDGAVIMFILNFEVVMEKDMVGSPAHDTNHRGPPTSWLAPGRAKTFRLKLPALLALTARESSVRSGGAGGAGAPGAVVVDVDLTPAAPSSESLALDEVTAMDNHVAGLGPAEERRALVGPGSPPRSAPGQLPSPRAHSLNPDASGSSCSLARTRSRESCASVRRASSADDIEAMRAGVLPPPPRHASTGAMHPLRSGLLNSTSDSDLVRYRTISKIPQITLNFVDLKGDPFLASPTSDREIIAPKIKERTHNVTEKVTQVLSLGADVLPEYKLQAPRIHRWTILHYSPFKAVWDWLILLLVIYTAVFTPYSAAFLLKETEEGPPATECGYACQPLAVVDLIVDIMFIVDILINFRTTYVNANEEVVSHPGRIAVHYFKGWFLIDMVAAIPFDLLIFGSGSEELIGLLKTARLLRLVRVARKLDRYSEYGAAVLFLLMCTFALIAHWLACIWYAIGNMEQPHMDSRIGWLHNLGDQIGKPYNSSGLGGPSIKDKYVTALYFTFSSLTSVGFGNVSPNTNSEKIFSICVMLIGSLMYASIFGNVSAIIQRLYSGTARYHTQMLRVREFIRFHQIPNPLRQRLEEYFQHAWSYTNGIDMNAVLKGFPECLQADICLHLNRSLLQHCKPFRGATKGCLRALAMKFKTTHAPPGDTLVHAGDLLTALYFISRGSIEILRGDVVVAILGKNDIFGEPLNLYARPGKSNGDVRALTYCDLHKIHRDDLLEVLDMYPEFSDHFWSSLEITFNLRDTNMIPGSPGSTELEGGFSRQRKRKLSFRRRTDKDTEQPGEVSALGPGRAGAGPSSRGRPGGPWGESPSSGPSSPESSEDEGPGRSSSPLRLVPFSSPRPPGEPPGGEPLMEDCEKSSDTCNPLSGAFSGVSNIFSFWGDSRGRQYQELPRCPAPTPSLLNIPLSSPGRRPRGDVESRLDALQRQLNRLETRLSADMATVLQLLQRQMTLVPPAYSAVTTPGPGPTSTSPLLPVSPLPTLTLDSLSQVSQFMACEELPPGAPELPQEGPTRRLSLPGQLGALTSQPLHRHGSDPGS
The series is described as above. Type of series: cell-based.
Description: as §17

The subject of a further series is HCA-1 cells. As to the kind of experiment: EMT marker expression under hypoxia (qRT-PCR). It is filed as cell-based, murine. The note with it: hypoxic conditions (1% oxygen). On the procedure: Signaling, Danvers, MA) or β-actin (Sigma-Aldrich, St. Louis, MO) before incubation with HRP-conjugated secondary antibodies (Antibodies Inc., Davis, CA) for 1 h. Autoradiography was conducted after ECL reagent (Thermo Scientific, Rockford, IL) was added to the […]
Reverse transcription quantitative real time PCR
Total RNA was extracted from HCA-1 cells using the RNeasy Mini Kit (Qiagen, CA, USA). cDNAs were synthesized using the High-Capicity cDNA Reverse Transcription Kit (Applied Biosystems, CA, USA). Primers specific for Slug, Fn1, Cdh2, Vim, Foxc2, Zeb1, Zeb2, Twist1, Cdh1, Mta3, Cldn3, Cldn5, β-actin and GAPDH were used, and relative gene expression was determined using Real-Time SYBR Green PCR Master Mix (Applied Biosystems, CA, USA) on a QPCR System. The comparative threshold cycle method was used to calculate fold change in gene expression, which was normalized to β-actin as a […]

A word on the inhibition: it is the percentage by which the read-out fell short of the control. In general, EC50 refers to the concentration at which the effect is half-maximal. As usually defined, the IC50 is the point on the concentration scale where inhibition reaches its midpoint. Read a high IC50 as lower potency.

“And” between values parts separate entries of the source, which are not always exact repeats. Equal entries are not always repeated.

T3 sequence (Q12809 whole entry): as above
Chain of CXCR4 (P61073 whole entry): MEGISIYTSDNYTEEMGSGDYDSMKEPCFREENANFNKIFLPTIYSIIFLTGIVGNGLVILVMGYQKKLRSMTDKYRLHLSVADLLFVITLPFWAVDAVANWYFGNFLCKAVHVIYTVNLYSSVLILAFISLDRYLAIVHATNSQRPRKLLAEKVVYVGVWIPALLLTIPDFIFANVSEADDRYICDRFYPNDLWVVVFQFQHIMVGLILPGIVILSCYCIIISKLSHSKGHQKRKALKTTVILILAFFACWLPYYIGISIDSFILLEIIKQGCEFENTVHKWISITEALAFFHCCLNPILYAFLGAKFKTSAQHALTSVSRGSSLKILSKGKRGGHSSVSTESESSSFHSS
T1 sequence (P35462 whole entry, species assumed): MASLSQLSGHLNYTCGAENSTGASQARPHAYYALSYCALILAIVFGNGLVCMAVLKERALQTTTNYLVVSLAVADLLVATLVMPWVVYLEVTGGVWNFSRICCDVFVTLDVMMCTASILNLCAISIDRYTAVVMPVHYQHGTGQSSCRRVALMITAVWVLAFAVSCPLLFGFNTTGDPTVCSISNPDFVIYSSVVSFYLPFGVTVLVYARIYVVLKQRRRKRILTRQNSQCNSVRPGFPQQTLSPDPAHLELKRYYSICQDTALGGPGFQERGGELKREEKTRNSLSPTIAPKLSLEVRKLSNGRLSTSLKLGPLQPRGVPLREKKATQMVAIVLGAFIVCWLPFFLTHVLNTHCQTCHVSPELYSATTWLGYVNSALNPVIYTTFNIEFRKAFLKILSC

`Cc1cc(NC2CCN(C(=O)CCNCC(=O)O)CC2)nc(NCc2nc(CCCNCCCNC3CCCCC3)co2)n1` [BPRCX807]: the inhibition at 10 µM on dopamine D3 receptor was found to be 58%; at bradykinin B1 receptor it was 62%; against hERG (10 µM), 9%. Also, the EC50 on CXCR4 was 0.048 µM and 0.0481 µM. Moreover, 1 µM produced 13.8% inhibition at hERG (1 µM). Besides, at hERG (100 µM), 100 µM produced 17.4% inhibition. In addition, the IC50 against hERG (human K+ channel) is more than 100 µM. Moreover, in the series with HCA-1 cells, the “Expression of epithelial markers (E-cadherin, MTA-3, CLDN3, CLDN5)” value is “alleviated a hypoxia-induced decrease in the epithelial markers”. Besides, in the series on HCA-1 cells (dose-dependent), the “Expression of mesenchymal markers (Slug, Fibronectin, N-cadherin, Vimentin, FOXC2, Zeb1, Zeb2)” value is recorded as “restrained the increases in the expression of mesenchymal markers”.
